Reference: PubChem BioAssay AID296 (DTP/NCI, 2004)
Where “and” joins values, the source holds several entries; their conditions need not be identical. Equal entries are not always repeated. Inconclusive results are not listed.

Tested on: MX-1 breast xenograft, nude mice, tumor weight T/C
Assay: NCI In Vivo Anticancer Drug Screen. Data for tumor model Human Mammary Carcinoma MX-1 Xenograft (intrarenal inoculation) in NU/NU Swiss (nude) mice
Conditions: endpoint: mean tumor weight change, higher = larger tumour
Summary of the method: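 Antitumour effect measured in vivo against vehicle controls, expressed as T/C.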

[1] = dose: 3.13 mg/kg/injection, schedule: Q01DX010 (sc), vehicle: saline
[2] = dose: 6.25 mg/kg/injection, schedule: Q01DX010 (sc), vehicle: saline
[3] = dose: 12.5 mg/kg/injection, schedule: Q01DX010 (sc), vehicle: saline
[4] = dose: 25.0 mg/kg/injection, schedule: Q01DX010 (sc), vehicle: saline
[5] = dose: 100.0 mg/kg/injection, schedule: Q01DX010 (sc), vehicle: saline
[6] = dose: 50.0 mg/kg/injection, schedule: Q01DX010 (sc), vehicle: saline
[7] = dose: 100.0 mg/kg/injection, schedule: Q04DX003 (sc), vehicle: saline with Tween-80
[8] = dose: 200.0 mg/kg/injection, schedule: Q04DX003 (sc), vehicle: saline with Tween-80
[9] = dose: 400.0 mg/kg/injection, schedule: Q04DX003 (sc), vehicle: saline with Tween-80
[10] = dose: 300.0 mg/kg/injection, schedule: Q04DX003 (sc), vehicle: Klucel (hydroxypropylcellulose) (HPC)

SMILES: N=[N+]=CC(=O)OCC(N)C(=O)O (stereo not drawn)
- T/C [1]: -57 % of control and -53 % of control
- T/C [2]: -69 % of control and -54 % of control
- T/C [3]: -81 % of control and -71 % of control
- T/C [4]: -80 % of control

SMILES: CC(C)[C@](O)(C(=O)OCC1=CCN2CC[C@@H](O)[C@@H]12)[C@H](C)O
- T/C (dose: 300.0 mg/kg/injection, schedule: Q04DX003 (sc), vehicle: water): 56 % of control
- T/C (dose: 600.0 mg/kg/injection, schedule: Q04DX003 (sc), vehicle: water): 65 % of control
- T/C (dose: 1200.0 mg/kg/injection, schedule: Q04DX003 (sc), vehicle: water): 53 % of control
- T/C (dose: 2400.0 mg/kg/injection, schedule: Q04DX003 (sc), vehicle: water): 51 % of control

SMILES: CCCC(=O)O
- T/C [5]: 104 % of control

SMILES: O=C(NO)c1cc(O)c(O)c(O)c1
- T/C (dose: 200.0 mg/kg/injection, schedule: Q04DX003 (sc), vehicle: distilled water + Tween-80): 64 % of control
- T/C (dose: 400.0 mg/kg/injection, schedule: Q04DX003 (sc), vehicle: distilled water + Tween-80): 109 % of control
- T/C (dose: 800.0 mg/kg/injection, schedule: Q04DX003 (sc), vehicle: distilled water + Tween-80): 122 % of control

SMILES: COC1C(C)OC(OC2CC(C)(O)Cc3cc4c(c(O)c32)C(=O)c2c(O)cc3c(c2C4=O)OC2OC3(C)C(O)C(N(C)C)C2O)C(OC)C1(C)OC (stereo not drawn)
- T/C (dose: 10.0 mg/kg/injection, schedule: Q04DX003 (sc), vehicle: Klucel (hydroxypropylcellulose) (HPC)): 82 % of control
- T/C (dose: 20.0 mg/kg/injection, schedule: Q04DX003 (sc), vehicle: Klucel (hydroxypropylcellulose) (HPC)): 94 % of control
- T/C (dose: 40.0 mg/kg/injection, schedule: Q04DX003 (sc), vehicle: Klucel (hydroxypropylcellulose) (HPC)): 84 % of control
- T/C (dose: 80.0 mg/kg/injection, schedule: Q04DX003 (sc), vehicle: Klucel (hydroxypropylcellulose) (HPC)): 76 % of control

SMILES: C/C(=N/NC(N)=S)c1ccc2ccccc2c1
- T/C (dose: 25.0 mg/kg/injection, schedule: Q01DX010 (sc), vehicle: saline with Tween-80): 75 % of control
- T/C (dose: 50.0 mg/kg/injection, schedule: Q01DX010 (sc), vehicle: saline with Tween-80): 81 % of control
- T/C (dose: 100.0 mg/kg/injection, schedule: Q01DX010 (sc), vehicle: saline with Tween-80): 29 % of control

SMILES: O=C(O)CC(NC(=O)CP(=O)(O)O)C(=O)O (stereo not drawn)
- T/C [6]: 117 % of control
- T/C [5]: 25 % of control and 34 % of control

SMILES: C1OCN2CSCC12 (stereo not drawn)
- T/C [7]: 94 % of control
- T/C [8]: 158 % of control
- T/C [9]: 80 % of control

SMILES: C1OC1C1CO1 (stereo not drawn)
- T/C [3]: 4 % of control and 28 % of control
- T/C (dose: 12.5 mg/kg/injection, schedule: Q04DX003 (sc), vehicle: suspension in saline): 63 % of control and 74 % of control
- T/C [4]: -53 % of control and -47 % of control
- T/C (dose: 25.0 mg/kg/injection, schedule: Q04DX003 (sc), vehicle: suspension in saline): 37 % of control and 44 % of control
- T/C [6]: -90 % of control and -85 % of control
- T/C (dose: 50.0 mg/kg/injection, schedule: Q04DX003 (sc), vehicle: suspension in saline): 1 % of control and 4 % of control

SMILES: C[C@]12CCC(=O)C=C1CC[C@@H]1[C@@H]2C(=O)C[C@@]2(C)[C@H]1CC[C@]2(O)C(=O)CO
- T/C [10]: 108 % of control
- T/C (dose: 600.0 mg/kg/injection, schedule: Q04DX003 (sc), vehicle: Klucel (hydroxypropylcellulose) (HPC)): 45 % of control

SMILES: CCN(C)N=Nc1ccc(C(N)=O)cc1
- T/C (dose: 150.0 mg/kg/injection, schedule: Q04DX003 (sc), vehicle: Klucel (hydroxypropylcellulose) (HPC)): 38 % of control
- T/C [10]: 21 % of control

SMILES: NC(C(=O)O)c1ccc(CBr)cc1 (stereo not drawn)
- T/C (dose: 200.0 mg/kg/injection, schedule: Q04DX003 (sc), vehicle: acid diluted with saline): 61 % of control
- T/C (dose: 400.0 mg/kg/injection, schedule: Q04DX003 (sc), vehicle: acid diluted with saline): 92 % of control
- T/C (dose: 800.0 mg/kg/injection, schedule: Q04DX003 (sc), vehicle: acid diluted with saline): 73 % of control
- T/C (dose: 1600.0 mg/kg/injection, schedule: Q04DX003 (sc), vehicle: acid diluted with saline): 106 % of control

SMILES: NC(CNC(=O)CBr)C(=O)O (stereo not drawn)
- T/C (dose: 37.5 mg/kg/injection, schedule: Q04DX003 (sc), vehicle: water): 53 % of control
- T/C (dose: 75.0 mg/kg/injection, schedule: Q04DX003 (sc), vehicle: water): 10 % of control and 17 % of control
- T/C (dose: 100.0 mg/kg/injection, schedule: Q04DX003 (sc), vehicle: water): 9 % of control
- T/C (dose: 150.0 mg/kg/injection, schedule: Q04DX003 (sc), vehicle: water): 8 % of control and 13 % of control

SMILES: Cc1c2c(ccc3ccccc32)c[n+]2ccccc12
- T/C [1]: 101 % of control
- T/C [2]: 82 % of control
- T/C [3]: 25 % of control

SMILES: CO[C@H]1C[C@](C)(O)Cc2cc3c(c(O)c21)C(=O)c1c(O)cc2c(c1C3=O)O[C@@H]1O[C@@]2(C)[C@H](O)[C@@H](N(C)C)[C@@H]1O
- T/C (dose: 3.13 mg/kg/injection, schedule: Q01DX010 (sc), vehicle: other): 93 % of control
- T/C (dose: 6.25 mg/kg/injection, schedule: Q01DX010 (sc), vehicle: other): 82 % of control
- T/C (dose: 12.5 mg/kg/injection, schedule: Q01DX010 (sc), vehicle: other): 43 % of control

SMILES: O=c1[nH]c(=O)n(C2OC(CO)C(O)C2O)cc1F (stereo not drawn)
- T/C (dose: 9.38 mg/kg/injection, schedule: Q01DX010 (sc), vehicle: saline): 21 % of control

SMILES: O=C1C(NCCO)=C(N2CC2)C(=O)C(NCCO)=C1N1CC1
- T/C (dose: 0.5 mg/kg/injection, schedule: Q04DX003 (ip), vehicle: saline): 69 % of control
- T/C (dose: 0.75 mg/kg/injection, schedule: Q04DX003 (sc), vehicle: saline): 64 % of control
- T/C (dose: 1.0 mg/kg/injection, schedule: Q04DX003 (ip), vehicle: saline): 50 % of control
- T/C (dose: 1.5 mg/kg/injection, schedule: Q04DX003 (sc), vehicle: saline): 37 % of control
- T/C (dose: 2.0 mg/kg/injection, schedule: Q04DX003 (ip), vehicle: saline): 29 % of control
- T/C (dose: 2.0 mg/kg/injection, schedule: Q04DX003 (sc), vehicle: saline): 66 % of control
- T/C (dose: 3.0 mg/kg/injection, schedule: Q04DX003 (sc), vehicle: saline): 9 % of control
- T/C (dose: 4.0 mg/kg/injection, schedule: Q04DX003 (ip), vehicle: saline): 8 % of control
- T/C (dose: 8.0 mg/kg/injection, schedule: Q04DX003 (sc), vehicle: saline): -90 % of control

SMILES: C=C(NC(=O)C(=C)NC(=O)c1csc(C2=NC3c4csc(n4)C4NC(=O)c5csc(n5)C(C(C)(O)C(C)O)NC(=O)C5CSC(=N5)/C(=C/C)NC(=O)C(C(C)O)NC(=O)c5csc(n5)C3(CC2)NC(=O)C(C)NC(=O)C(=C)NC(=O)C(C)NC(=O)C(C(C)CC)NC2C=Cc3c(C(C)O)cc(nc3C2O)C(=O)OC4C)n1)C(N)=O (stereo not drawn)
- T/C (dose: 400.0 mg/kg/injection, schedule: Q01DX010 (sc), vehicle: Klucel (hydroxypropylcellulose) (HPC)): 73 % of control
- T/C (dose: 800.0 mg/kg/injection, schedule: Q01DX010 (sc), vehicle: Klucel (hydroxypropylcellulose) (HPC)): 98 % of control
- T/C (dose: 1600.0 mg/kg/injection, schedule: Q01DX010 (sc), vehicle: Klucel (hydroxypropylcellulose) (HPC)): 81 % of control
- T/C (dose: 3200.0 mg/kg/injection, schedule: Q01DX010 (sc), vehicle: Klucel (hydroxypropylcellulose) (HPC)): 117 % of control

SMILES: CCN1/C(=C/C=C/C=C\C=C\c2sc3ccc4ccccc4c3[n+]2CC)Sc2ccc3ccccc3c21
- T/C [7]: 104 % of control
- T/C [8]: 89 % of control
- T/C [9]: 101 % of control
- T/C (dose: 800.0 mg/kg/injection, schedule: Q04DX003 (sc), vehicle: saline with Tween-80): 93 % of control

SMILES: CC[C@@]1(O)C[C@H](OC2CC(N(C)C)C(OC3CC(O)C(OC4CCC(=O)C(C)O4)C(C)O3)C(C)O2)c2c(cc3c(c2O)C(=O)c2c(O)ccc(O)c2C3=O)[C@H]1C(=O)OC (stereo partly drawn)
- T/C (dose: 3.0 mg/kg/injection, schedule: Q04DX003 (sc), vehicle: water): 88 % of control
- T/C (dose: 6.0 mg/kg/injection, schedule: Q04DX003 (sc), vehicle: water): 43 % of control

SMILES: Nc1nnc[se]1
- T/C [7]: 54 % of control
- T/C (dose: 1600.0 mg/kg/injection, schedule: Q04DX003 (sc), vehicle: saline with Tween-80): 74 % of control

SMILES: COC1CC(CC2CCC(C)C(C(C)C(=O)O)O2)OC2(OC(C)(C3CCC(C)(C4OC(C5OC(O)(CO)C(C)CC5C)CC4C)O3)CC2C)C1C (stereo not drawn)
- T/C (dose: 3.75 mg/kg/injection, schedule: Q04DX003 (sc), vehicle: Klucel (hydroxypropylcellulose) (HPC)): 120 % of control
- T/C (dose: 7.5 mg/kg/injection, schedule: Q04DX003 (sc), vehicle: Klucel (hydroxypropylcellulose) (HPC)): 65 % of control
- T/C (dose: 15.0 mg/kg/injection, schedule: Q04DX003 (sc), vehicle: Klucel (hydroxypropylcellulose) (HPC)): 86 % of control
